Test results from article PMC4744035, “In Vivo, In Vitro, and In Silico Characterization of Peptoids as Antimicrobial Agents” (PLoS ONE, 2016).
In brackets after ≈: the same amount, converted by molar mass. Where two headings read alike, the source gives them in different places. Numbered stars: 1 amine (or outer) side, 2 acyl side, 3 side chain; on linkers, the order of the positions; unused ones are H or OH. Square brackets hold non-standard residues; d marks the D form. Peptide text beside a SMILES is read from it. X2 = C[C@@H](c1cccc2ccccc12)N(CC(=O)[*:2])[*:1]; Nspe = C[C@H](NCC(=O)O)c1ccccc1; Nlys = NCCCCNCC(=O)O

Legend:
Test in all cases: microbe, parasite or virus in culture
[1] = test system: P. aeruginosa 198 (MDR)
Description: (§1) The MICs of test agents were measured using a modified broth micro-dilution method in Difco Mueller Hinton medium, on a panel of bacterial pathogens that were both susceptible and resistant to common antibiotics (S1 File). Briefly, serial dilutions were performed in 0.01% acetic acid containing 0.2% bovine serum albumin at 10-fold the desired final concentration. Ten μL of the 10-fold concentrated test reagents were added to each well of a 96-well polypropylene microtitre plate containing 90 μL of Mueller Hinton media per well. Bacteria were added to the plate from an overnight culture at a final concentration of 2–7 x 10^5 CFU/mL and incubated overnight at 37°C. The MIC is defined as the concentration at which no growth was observed.
(§2) Screening of peptoid antimicrobial activity against a panel of multidrug resistant superbugs was done according to the protocol described in the manuscript. The bacterial strains used in this panel included; P. aeruginosa PAO1 strain H103 [1], P. maltophilia ATCC#13637, S. aureus ATCC#25923 [1], E. faecalis ATCC#29212 [2], and E. cloacae 218R, constitutively expressing Class C chromosomal β-lactamase, were from the Hancock lab strains collection. An MRSA clinical isolate was kindly provided by Anthony Chow (Vancouver General Hospital, Vancouver, Canada). Two Klebsiella pneumoniae and two E. coli clinical isolates expressing extended spectrum β-lactamases (ESBL) were kindly provided by George Zhanel (Health Sciences Centre, Winnipeg, Canada). Vancomycin-resistant clinical isolates of Enterococcus faecalis and E. faecium were obtained from Ana M. Paccagnella (BC Centre for Disease Control, Vancouver, Canada). Three clinical isolates (#9, #198 and #213) of multi-drug resistant P. aeruginosa, were kindly provided by Carlos Kiffer (University of São Paulo, Brazil). […] Three P. aeruginosa clinical isolates of the Liverpool epidemic strain (LES) (H1027, H1030 and LES400) were all kindly provided by Craig Winstanley (University of Liverpool, UK). […] All tested bacterial strains were categorized as biohazard level 2 pathogens.

[2] = test system: E. faecalis ATCC29212; conditions: ATCC29212
Description: as §1, §2

[3] = test system: E. faecium T62764 (VRE)
Description: as §1, §2

[4] = test system: K. pneumonia 61962 (ESBL)
Description: as §1, §2

[5] = test system: S. aureus C623 (MRSA)
Description: as §1, §2

[6] = test system: E. coli 64771 (ESBL)
Description: as §1, §2

[7] = test system: P. aeruginosa H1027 (MDR)
Description: as §1, §2

[8] = test system: E. faecalis W61950 (VRE)
Description: as §1, §2

[9] = test system: P. aeruginosa 9 (MDR)
Description: as §1, §2

[10] = test system: S. aureus ATCC25923; conditions: ATCC25923
Description: as §1, §2

[11] = test system: E. faecalis F43559 (VRE)
Description: as §1, §2

[12] = test system: P. aeruginosa LES400 (MDR)
Description: as §1, §2

[13] = test system: E. faecium mic80 (VRE)
Description: as §1, §2

[14] = test system: K. pneumonia 63575 (ESBL)
Description: as §1, §2

[15] = test system: P. aeruginosa H1030 (MDR)
Description: as §1, §2

[16] = test system: P. maltophilia ATCC13637; conditions: ATCC13637
Description: as §1, §2

[17] = test system: P. aeruginosa 213 (MDR)
Description: as §1, §2

[18] = test system: P. aeruginosa H103 (wild type)
Description: as §1, §2

[19] = test system: E. cloacae 218R Class C β-lactamase
Description: as §1, §2

[20] = test system: E. coli 63103 (ESBL)
Description: as §1, §2

SMILES | MIC ([1]; Pseudomonas aeruginosa) | MIC ([2]; Enterococcus faecalis) | MIC ([3]; Enterococcus faecium, VRE) | MIC ([4]; Klebsiella pneumoniae) | MIC ([5]; Staphylococcus aureus, MRSA) | MIC ([6]; Escherichia coli) | MIC ([7]; Pseudomonas aeruginosa) | MIC ([8]; Enterococcus faecalis, VRE) | MIC ([9]; Pseudomonas aeruginosa) | MIC ([10]; Staphylococcus aureus) | MIC ([11]; Enterococcus faecalis, VRE) | MIC ([12]; Pseudomonas aeruginosa) | MIC ([13]; Enterococcus faecium, VRE) | MIC ([14]; Klebsiella pneumoniae) | MIC ([15]; Pseudomonas aeruginosa) | MIC ([16]; Stenotrophomonas maltophilia) | MIC ([17]; Pseudomonas aeruginosa) | MIC ([18]; Pseudomonas aeruginosa) | MIC ([19]; Enterobacter cloacae) | MIC ([20]; Escherichia coli) | also measured
NC[C@H]1O[C@H](O[C@H]2[C@H](O)[C@@H](O[C@H]3O[C@H](CO)[C@@H](O)[C@H](N)[C@H]3O)[C@H](N)C[C@@H]2N)[C@H](N)C[C@@H]1O [Tobramycin, reference compound] | > 128 µg/mL | 16 µg/mL (≈ 34.2 µM) | > 128 µg/mL | 32 µg/mL (≈ 68.4 µM) | > 128 µg/mL | 128 µg/mL (≈ 274 µM) | 32 µg/mL (≈ 68.4 µM) | > 128 µg/mL | > 128 µg/mL | 0.3 µg/mL (≈ 0.642 µM) | 32 µg/mL (≈ 68.4 µM) | 4 µg/mL (≈ 8.56 µM) | 128 µg/mL (≈ 274 µM) | 16 µg/mL (≈ 34.2 µM) | 8 µg/mL (≈ 17.1 µM) | 4 µg/mL (≈ 8.56 µM) | > 128 µg/mL | 0.5 µg/mL (≈ 1.07 µM) | 0.5 µg/mL (≈ 1.07 µM) | 64 µg/mL (≈ 137 µM) | 
O=C(O)c1cn(C2CC2)c2cc(N3CCNCC3)c(F)cc2c1=O [Ciprofloxacin, reference compound] | 32 µg/mL (≈ 96.6 µM) | 0.3 µg/mL (≈ 0.905 µM) | 128 µg/mL (≈ 386 µM) | 0.1 µg/mL (≈ 0.302 µM) | 2 µg/mL (≈ 6.04 µM) | > 128 µg/mL | 1 µg/mL (≈ 3.02 µM) | 32 µg/mL (≈ 96.6 µM) | 128 µg/mL (≈ 386 µM) | 0.1 µg/mL (≈ 0.302 µM) | 32 µg/mL (≈ 96.6 µM) | 0.5 µg/mL (≈ 1.51 µM) | 32 µg/mL (≈ 96.6 µM) | 64 µg/mL (≈ 193 µM) | 0.3 µg/mL (≈ 0.905 µM) | 0.3 µg/mL (≈ 0.905 µM) | 64 µg/mL (≈ 193 µM) | 0.1 µg/mL (≈ 0.302 µM) |  | > 128 µg/mL | 
C[C@@H](c1ccccc1)N(CC(=O)N(CCCCN)CC(=O)N(CC(=O)N(CC(=O)N(CCCCN)CC(=O)N(CC(=O)N(CC(=O)N(CCCCN)CC(=O)N(CC(=O)N(CC(N)=O)[C@@H](C)c1cccc2ccccc12)[C@@H](C)c1ccccc1)[C@@H](C)c1ccccc1)[C@@H](C)c1ccccc1)[C@@H](C)c1cccc2ccccc12)[C@@H](C)c1ccccc1)C(=O)CN(C(=O)CNCCCCN)[C@@H](C)c1ccccc1 [1-Nsna6,12, H-(NLys-Nspe-Nspe-NLys-Nspe-Nsna)2-NH2] (H-[Nlys][Nspe][Nspe][Nlys][Nspe][X2][Nlys][Nspe][Nspe][Nlys][Nspe][X2]-NH2) |  |  |  |  |  |  |  |  |  |  |  |  |  |  |  |  |  |  |  |  | MIC ([1]; 198 (MDR)): 16 µg/mL (≈ 8.34 µM); MIC [2]: 4 µg/mL (≈ 2.08 µM); MIC ([3]; T62764 (VRE)): 2 µg/mL (≈ 1.04 µM); MIC [4]: 64 µg/mL (≈ 33.3 µM); MIC ([5]; C623): 4 µg/mL (≈ 2.08 µM); MIC ([6]; 64771 (ESBL)): 8 µg/mL (≈ 4.17 µM); MIC ([7]; H1027 (MDR)): 2 µg/mL (≈ 1.04 µM); MIC ([8]; W61950 (VRE)): 16 µg/mL (≈ 8.34 µM); MIC ([9]; 9 (MDR)): 128 µg/mL (≈ 66.7 µM); MIC [10]: 4 µg/mL (≈ 2.08 µM); MIC ([11]; F43559 (VRE)): 8 µg/mL (≈ 4.17 µM); MIC ([12]; LES400 (MDR)): 8 µg/mL (≈ 4.17 µM); MIC ([13]; mic80 (VRE)): 4 µg/mL (≈ 2.08 µM); MIC [14]: 32 µg/mL (≈ 16.7 µM); MIC ([15]; P. aeruginosa H1030 (MDR)): 32 µg/mL (≈ 16.7 µM); MIC [16]: 1 µg/mL (≈ 0.521 µM); MIC ([17]; 213 (MDR)): 8 µg/mL (≈ 4.17 µM); MIC ([18]; H103 (wild type)): 4 µg/mL (≈ 2.08 µM); MIC ([19]; 218R Class C β-lactamase): 32 µg/mL (≈ 16.7 µM); MIC ([20]; 63103 (ESBL)): 16 µg/mL (≈ 8.34 µM)
C[C@@H](O)[C@H]1C(=O)N2C(C(=O)O)=C(SCCN=CN)C[C@H]12 [Imipenem, reference compound] | 32 µg/mL (≈ 107 µM) | 0.5 µg/mL (≈ 1.67 µM) | > 128 µg/mL | 0.1 µg/mL (≈ 0.334 µM) | 0.1 µg/mL (≈ 0.334 µM) | 0.1 µg/mL (≈ 0.334 µM) | 8 µg/mL (≈ 26.7 µM) | 2 µg/mL (≈ 6.68 µM) | 128 µg/mL (≈ 428 µM) | 0.1 µg/mL (≈ 0.334 µM) | 2 µg/mL (≈ 6.68 µM) | 1 µg/mL (≈ 3.34 µM) | 128 µg/mL (≈ 428 µM) | 0.1 µg/mL (≈ 0.334 µM) |  | 128 µg/mL (≈ 428 µM) | 128 µg/mL (≈ 428 µM) | 2 µg/mL (≈ 6.68 µM) | 0.1 µg/mL (≈ 0.334 µM) | 0.1 µg/mL (≈ 0.334 µM) | 
CC(C)(O/N=C(\C(=O)N[C@@H]1C(=O)N2C(C(=O)[O-])=C(C[n+]3ccccc3)CS[C@H]12)c1csc(N)n1)C(=O)O [Ceftazidime, reference compound] | 128 µg/mL (≈ 234 µM) | 128 µg/mL (≈ 234 µM) | > 128 µg/mL | > 128 µg/mL | 64 µg/mL (≈ 117 µM) | > 128 µg/mL | 128 µg/mL (≈ 234 µM) | > 128 µg/mL | > 128 µg/mL | 16 µg/mL (≈ 29.3 µM) | > 128 µg/mL | 32 µg/mL (≈ 58.5 µM) | > 128 µg/mL | > 128 µg/mL |  | 0.3 µg/mL (≈ 0.549 µM) | > 128 µg/mL | 2 µg/mL (≈ 3.66 µM) | 32 µg/mL (≈ 58.5 µM) | 128 µg/mL (≈ 234 µM) | 
